Test results reported in patent publication US20240327354A1, “GRAM-NEGATIVE BACTERIA EFFLUX PUMP INHIBITORS” (INSTITUT NATIONAL DE LA SANTÉ ET DE LA RECHERCHE MÉDICALE, priority 2021, published 2024).
Counter-ions that a name gives are not always drawn.

Columns and labels:
E. coli BW25113 = assay: Assay 1: growth inhibition of E. coli by sub-inhibitory pyridomycin in combination with examples (resazurin reduction); format: cell-based, Escherichia coli; details: read-out: EC50 on E. coli with 8 μg/mL of pyridomycin, 8 μg/mL pyridomycin, 5 h, 37° C.
From the text: (§1) Escherichia coli BW25113 (CGSC 7636) and its derivatives E. coli ΔtolC (JW5503-1, ΔtolC732::kan, CGSC 11430), E. coli ΔacrA (JW0452-3, ΔacrA748::kan, CGSC 11843) and E. coli ΔacrB (JW0451-2, ΔacrB747::kan, CGSC 8609) were obtained from E. coli Genetic Stock Center (CGSC, New Haven, Connecticut) and originated from the Keio Collection (Baba T et al, Mol Sys Biol, 2006). Klebsiella pneumoniae (LMG 2095/ATCC 13883) and K. pneumoniae (ATCC43816), Pseudomonas aeruginosa (PAO1), Acinetobacter baumannii (LMG 1025, ATCC 17978), were obtained from ATCC or BCCM/LMG Bacteria Collection. All bacteria were grown and tested in cation-adjusted Mueller-Hinton broth (CAMHB; BD Difco) at 37° C. For conservation, log phase bacteria were frozen (−80° C.) in CAMHB supplemented with 15% glycerol.
Briefly, E. coli BW25113 were diluted from frozen or growing stocks to an OD600 of 0.0004-0.001 in CAMHB. […] E. coli BW25113 viability was evaluated using the resazurin reduction assay, and measured by fluorescence (POLARstar Omega, BMG Labtech: Ex: 530 nm Em: 590 nm). EC50 were defined as the compound concentration that prevented 50% of resazurin turnover compared to the non-treated bacteria.

[1] = system: A. baumannii LMG 1025 (ATCC 17978); assay: Assay 2: growth inhibition of A. baumannii by sub-inhibitory chloramphenicol in combination with examples (resazurin reduction); format: cell-based, Acinetobacter baumannii; details: read-out: EC90 on A. baumannii with 10 μg/mL of chloramphenicol, 10 μg/mL chloramphenicol, 5 h or 24 h, 37° C.
From the text: as §1
Measurement of Growth Inhibition of A. baumannii Strains by Sub Inhibitory Concentrations of Chloramphenicol in Combination with Examples 1-137
For the evaluation of the dose dependent activity of examples 1-137, their ability to boost the antibacterial activity of sub-inhibitory concentrations chloramphenicol was determined. Briefly, A. baumannii LMG 1025 (ATCC 17978) were diluted from frozen or growing stocks to an OD600 of 0.001 in CAMHB. The bacterial suspension was then used as such (no-antibiotic control to evaluate EPI activity), or spiked with chloramphenicol at a final concentration of 10 μg/mL. Bacteria were then added to microplates carrying serial dilutions of the compounds examples 1-137, and incubated for (5 h or 24 h, 37° C.). Bacterial viability was evaluated using the resazurin reduction assay, and measured by fluorescence (POLARstar Omega, BMG Labtech: Ex: 530 nm Em: 590 nm). […] were defined as the compound concentration that prevented 90% of resazurin turnover compared to the non-treated bacteria.

Row | Structure (SMILES) | EC50 (E. coli BW25113) [µM] | EC90 [1] [µM]
1 | FC(F)(F)c1cnc(N2CCCNCC2)c(Cl)c1 [Example 6, 1-[3-chloro-5-(trifluoromethyl)-2-pyridyl]-1,4-diazepane] | 100 to 500 | 100 to 500
2 | Brc1cnc(N2CCCNCC2)c2ccccc12 [Example 8, 4-bromo-1-(1,4-diazepan-1-yl)isoquinoline] | 5 to 100 | 5 to 100
3 | CCN1CCN(c2nc3ccccc3nc2Cl)CC1 [Example 9, 2-chloro-3-(4-ethylpiperazin-1-yl)quinoxaline;hydrochloride] | 5 to 100 | 100 to 500
4 | Clc1cc2ccccc2nc1N1CCCNCC1 [Example 11, 3-chloro-2-(1,4-diazepan-1-yl)quinoline] | 5 to 100 | 100 to 500
5 | FC(F)(F)c1cnc(N2CCNCC2)c(Cl)c1 [Example 14, 1-[3-chloro-5-(trifluoromethyl)-2-pyridyl]piperazine; hydrochloride] | 5 to 100 | 100 to 500
6 | FC(F)(F)c1cnc(N2CC3CC2CN3)c(Cl)c1 [Example 15, (1S,4S)-2-[3-chloro-5-(trifluoromethyl)-2-pyridyl]-2,5-diazabicyclo[2.2.1]heptane;formic acid] | 100 to 500 | 100 to 500
7 | FC(F)(F)c1cnc(N[C@H]2[C@@H]3CNC[C@@H]32)c(Cl)c1 [Example 16, (1R,5S)-N-[3-chloro-5-(trifluoromethyl)-2-pyridyl]-3-azabicyclo[3.1.0]hexan-6-amine;formic acid] | – | 100 to 500
8 | Clc1nc2ccccc2nc1N[C@H]1[C@@H]2CNC[C@@H]21 [Example 51, N-[(1R,5S)-3-azabicyclo[3.1.0]hexan-6-yl]-3-chloro-quinoxalin-2-amine;hydrochloride] | – | 100 to 500
9 | Clc1cc2ccccc2nc1N[C@H]1[C@@H]2CNC[C@@H]21 [Example 57, N-[(1R,5S)-3-azabicyclo[3.1.0]hexan-6-yl]-3-chloro-quinolin-2-amine;hydrochloride] | – | 100 to 500
10 | NCCCC#Cc1cnc(N2CCNCC2)c(Cl)c1 [Example 87, 5-(5-chloro-6-piperazin-1-yl-3-pyridyl)pent-4-yn-1-amine; 2,2,2-trifluoroacetic acid] | < 5 | –
11 | C#Cc1cnc(N2CCNCC2)c(Cl)c1 [Example 88, 1-(3-chloro-5-ethynyl-2-pyridyl)piperazine] | 5 to 100 | –
12 | Clc1cc(C#Cc2ccccc2)cnc1N1CCNCC1 [Example 89, 1-[3-chloro-5-(2-phenylethynyl)-2-pyridyl]piperazine; 2,2,2-trifluoroacetic acid] | 5 to 100 | –
13 | NCCc1ccc(C#Cc2cnc(N3CCNCC3)c(Cl)c2)cc1 [Example 92, 2-[4-[2-(5-chloro-6-piperazin-1-yl-3-pyridyl)ethynyl]phenyl]ethanamine; 2,2,2-trifluoroacetic acid] | < 5 | –
14 | NCCCn1cc(-c2ccc3nc(N4CCNCC4)c(Cl)cc3c2)nn1 [Example 93, 3-[4-(3-chloro-2-piperazin-1-yl-6-quinolyl)triazol-1-yl]propan-1-amine;dihydrochloride] | < 5 | –
15 | NCCn1cc(-c2ccc3nc(N4CCNCC4)c(Cl)cc3c2)nn1 [Example 94, 2-[4-(3-chloro-2-piperazin-1-yl-6-quinolyl)triazol-1-yl]ethanamine;dihydrochloride] | < 5 | –
16 | CN(C)CCn1cc(-c2ccc3nc(N4CCNCC4)c(Cl)cc3c2)nn1 [Example 95, 2-[4-(3-chloro-2-piperazin-1-yl-6-quinolyl)triazol-1-yl]-N,N-dimethyl-ethanamine;dihydrochloride] | < 5 | –

Row | Structure (SMILES) | EC50 (E. coli BW25113) [µM] | EC90 [1] [µM]
17 | O=C1NCCN1c1ccc2nc(N3CCNCC3)c(Cl)cc2c1 [Example 96, 1-(3-chloro-2-piperazin-1-yl-6-quinolyl)imidazolidin-2-one;hydrochloride] | < 5 | –
18 | O=C1CCCN1c1ccc2nc(N3CCNCC3)c(Cl)cc2c1 [Example 97, 1-(3-chloro-2-piperazin-1-yl-6-quinolyl)pyrrolidin-2-one;hydrochloride] | < 5 | –
19 | NCC1CCN(c2ccc3nc(N4CCNCC4)c(Cl)cc3c2)CC1 [Example 99, [1-(3-chloro-2-piperazin-1-yl-6-quinolyl)-4-piperidyl]methanamine;dihydrochloride] | < 5 | –
20 | NCC1CCN(c2ccc3nc(N4CCNCC4)c(Cl)cc3c2)C1 (centres unmarked) [Example 100, [1-(3-chloro-2-piperazin-1-yl-6-quinolyl)pyrrolidin-3-yl]methanamine;dihydrochloride] | < 5 | –
21 | N[C@@H]1CCN(c2ccc3nc(N4CCNCC4)c(Cl)cc3c2)C1 [Example 101, (3R)-1-(3-chloro-2-piperazin-1-yl-6-quinolyl)pyrrolidin-3-amine;dihydrochloride] | < 5 | –
22 | N[C@H]1CCN(c2ccc3nc(N4CCNCC4)c(Cl)cc3c2)C1 [Example 102, (3S)-1-(3-chloro-2-piperazin-1-yl-6-quinolyl)pyrrolidin-3-amine;dihydrochloride] | < 5 | –
23 | Clc1cc2cc(N[C@@H]3CCNC3)ccc2nc1N1CCNCC1 [Example 103, 3-chloro-2-piperazin-1-yl-N-[(3R)-pyrrolidin-3-yl]quinolin-6-amine;dihydrochloride] | 5 to 100 | –
24 | OCc1cccc(-c2ccc3nc(N4CCNCC4)c(Cl)cc3c2)c1 [Example 108, [3-(3-chloro-2-piperazin-1-yl-6-quinolyl)phenyl]methanol;hydrochloride] | < 5 | –
25 | C[C@@H](N)c1cccc(-c2ccc3nc(N4CCNCC4)c(Cl)cc3c2)c1 [Example 113, (1R)-1-[3-(3-chloro-2-piperazin-1-yl-6-quinolyl)phenyl]ethanamine;dihydrochloride] | < 5 | –
26 | CC(C)(N)c1cccc(-c2ccc3nc(N4CCNCC4)c(Cl)cc3c2)c1 [Example 114, 2-[3-(3-chloro-2-piperazin-1-yl-6-quinolyl)phenyl]propan-2-amine;dihydrochloride] | < 5 | –
27 | NCCc1cccc(-c2ccc3nc(N4CCNCC4)c(Cl)cc3c2)c1 [Example 115, 2-[3-(3-chloro-2-piperazin-1-yl-6-quinolyl)phenyl]ethanamine;dihydrochloride] | < 5 | –
28 | NCc1ccc(C(F)(F)F)c(-c2ccc3nc(N4CCNCC4)c(Cl)cc3c2)c1 [Example 122, [3-(3-chloro-2-piperazin-1-yl-6-quinolyl)-4-(trifluoromethyl)phenyl]methanamine;dihydrochloride] | < 5 | –
29 | NCc1ccnc(-c2ccc3nc(N4CCNCC4)c(Cl)cc3c2)c1 [Example 131, [2-(3-chloro-2-piperazin-1-yl-6-quinolyl)-4-pyridyl]methanamine;dihydrochloride] | < 5 | –
30 | NCc1cncc(-c2ccc3nc(N4CCNCC4)c(Cl)cc3c2)c1 [Example 132, [5-(3-chloro-2-piperazin-1-yl-6-quinolyl)-3-pyridyl]methanamine;dihydrochloride] | < 5 | –
31 | NCc1cccc(-c2ccc3nc(N4CCNCC4)c(Cl)cc3c2)c1Cl [Example 136, [2-chloro-3-(3-chloro-2-piperazin-1-yl-6-quinolyl)phenyl]methanamine;dihydrochloride] | < 5 | –
32 | NCc1cc(Cl)cc(-c2ccc3nc(N4CCNCC4)c(Cl)cc3c2)c1 [Example 137, [3-chloro-5-(3-chloro-2-piperazin-1-yl-6-quinolyl)phenyl]methanamine;dihydrochloride] | < 5 | –
